According to US20060052399A1, “Oxazolidinone derivatives as antibacterial agents” (AstraZeneca AB, priority 2002, published 2006):
≈ marks a conversion by molar mass, not a printed value.

How the values were obtained:
Format in all cases: cell-based
Streptococcus pneumoniae = assay: MIC by agar dilution, Streptococcus pneumoniae; settings: agar with 5% defibrinated horse blood, 10^4 CFU/spot, 37° C., 5% carbon dioxide, 48 hours
Description: (§1) The following results were obtained on a standard in-vitro test system. The activity is described in terms of the minimum inhibitory concentration (MIC) determined by the agar-dilution technique with an inoculum size of 10^4 CFU/spot. Typically, compounds are active in the range 0.01 to 256 μg/ml.
(§2) Streptococci and enterococci were tested on agar supplemented with 5% defibrinated horse blood, an inoculum of 10^4 CFU/spot and an incubation temperature of 37° C. in an atmosphere of 5% carbon dioxide for 48 hours—blood is required for the growth of some of the test organisms. Fastidious Gram negative organisms were tested in Mueller-Hinton broth, supplemented with hemin and NAD, grown aerobically for 24 hours at 37° C., and with an innoculum of 5×10^4 CPU/well.

[1] = tested on: Linezolid Reistant Streptococcus pneumoniae; assay: MIC by agar dilution, linezolid resistant Streptococcus pneumoniae; settings: agar with 5% defibrinated horse blood, 10^4 CFU/spot, 37° C., 5% carbon dioxide, 48 hours
Description: as §1, §2

[2] = tested on: Staphylococcus aureus MRQR (methicillin resistant and quinolone resistant); assay: MIC by agar dilution, Staphylococcus aureus MRQR; settings: 10^4 CFU/spot, 37° C., 24 hours
Description: as §1
(§3) Staphylococci were tested on agar, using an inoculum of 10^4 CFU/spot and an incubation temperature of 37° C. for 24 hours—standard test conditions for the expression of methicillin resistance.

Moraxella catarrhalis = assay: MIC in Mueller-Hinton broth, Moraxella catarrhalis; settings: Mueller-Hinton broth with hemin and NAD, aerobic, 24 hours, 37° C.
Description: as §1, §2

[3] = tested on: Staphylococcus aureus MSQS (methicillin sensitive and quinolone sensitive); assay: MIC by agar dilution, Staphylococcus aureus MSQS; settings: 10^4 CFU/spot, 37° C., 24 hours
Description: as §1, §3

Haemophilus influenzae = assay: MIC in Mueller-Hinton broth, Haemophilus influenzae; settings: Mueller-Hinton broth with hemin and NAD, aerobic, 24 hours, 37° C.
Description: as §1, §2

Enterococcus faecium = assay: MIC by agar dilution, Enterococcus faecium; settings: agar with 5% defibrinated horse blood, 10^4 CFU/spot, 37° C., 5% carbon dioxide, 48 hours
Description: as §1, §2

MIC (Streptococcus pneumoniae): 0.5 µg/mL (≈ 1.14 µM)
MIC [1]: 4 µg/mL (≈ 9.14 µM)
MIC [2]: 2 µg/mL (≈ 4.57 µM)
MIC (Moraxella catarrhalis): 0.5 µg/mL (≈ 1.14 µM)
MIC [3]: 2 µg/mL (≈ 4.57 µM)
MIC (Haemophilus influenzae): > 64 µg/mL
MIC (Enterococcus faecium): 1 µg/mL (≈ 2.29 µM)
Structure (SMILES): Cn1nnnc1-c1ccc(-c2ccc(N3CC(CNC(=O)C4CC4)OC3=O)cc2F)cn1 (stereo in doubt) [Example 2, N-[[(5R)-3-[3-Fluoro-4-[6-(1-methyl-1H-1,2,3,4-tetrazol-5-yl)-3-Pyridinyl]phenyl]oxazolidin-2-on-5-yl]methyl]cycloproanecarboxamide]
